Data set [1] relates to T1, Frp2 (28.5 kDa ferric reductase).
T1 construct: native purification from camphor-grown cells; chromosome-coded
Put plainly: initial rate of A340 decrease, Lineweaver-Burk. In kind it is biochemical, Pseudomonas putida. Conditions: anaerobic, DCPIP as terminal acceptor.

The test system of data set [2] is T2, Frp1 (27.0 kDa ferric reductase).
T2 construct: native purification from camphor-grown cells; chromosome-coded
Put plainly: initial rate of A340 decrease, Lineweaver-Burk. The class given is biochemical, Pseudomonas putida. The following applies: anaerobic, DCPIP as terminal acceptor.

For data set [3], the target named is T3, 3,6-DKCMO (3,6-diketocamphane monooxygenase; 36DKCMO) (Pseudomonas putida, UniProt D7UER1).
T3 construct: gene camE36; oxygenating subunit, native purification from camphor-grown cells; CAM plasmid-coded; homodimer; five Trp per monomer
T3 sequence (D7UER1 1-378): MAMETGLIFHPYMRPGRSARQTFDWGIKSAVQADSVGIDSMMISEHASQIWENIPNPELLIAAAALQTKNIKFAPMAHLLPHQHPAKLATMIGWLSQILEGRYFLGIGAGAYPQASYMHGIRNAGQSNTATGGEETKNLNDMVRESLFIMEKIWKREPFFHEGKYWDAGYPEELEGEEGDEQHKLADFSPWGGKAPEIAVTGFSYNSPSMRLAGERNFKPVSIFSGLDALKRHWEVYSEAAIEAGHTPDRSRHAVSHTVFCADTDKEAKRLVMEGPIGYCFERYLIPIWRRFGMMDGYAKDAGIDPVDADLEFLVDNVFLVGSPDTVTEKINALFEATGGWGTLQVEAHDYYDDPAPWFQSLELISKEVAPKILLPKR
Put plainly: tryptophan fluorescence quenching titration (ex […] nm, em […] nm). In kind it is binding.

For data set [4], the target named is T4, 2,5-DKCMO (2,5-diketocamphane monooxygenase; 25DKCMO).
T4 construct: gene camE25-1; oxygenating subunit, native purification from camphor-grown cells; CAM plasmid-coded; homodimer; nine Trp per monomer
Described as above. The class given is binding, Pseudomonas putida. The following applies: anaerobic, 60 mM Tris/HCl pH 7.6, 10 µM enzyme; FNR made by photoreduction with EDTA.

Data set [5] shares this target. Put plainly: spectrophotometric titration at […] nm. The class given is binding, Pseudomonas putida. The following applies: aerobic, Tris-HCl pH 7.6, 10 µM FMN.
Data set [6] has as its target T3, 3,6-DKCMO (3,6-diketocamphane monooxygenase; 36DKCMO). The experiment in a line: spectrophotometric titration at […] nm. The class given is binding.
Substrate in data set [7]: NC(=O)C1=CN([C@@H]2O[C@H](COP(=O)(O)OP(=O)(O)OC[C@H]3O[C@@H](n4cnc5c(N)ncnc54)[C@H](O)[C@@H]3O)[C@@H](O)[C@H]2O)C=CC1
The experiment in a line: initial rate of A340 decrease, Lineweaver-Burk. In kind it is biochemical, Pseudomonas putida. Conditions: anaerobic.

Substrate in data set [8]: Cc1cc2nc3c(=O)[nH]c(=O)nc-3n(C[C@H](O)[C@H](O)[C@H](O)COP(=O)(O)O)c2cc1C
The experiment in a line: initial rate of A340 decrease, Lineweaver-Burk. In kind it is biochemical, Pseudomonas putida. Conditions: anaerobic, 60 mM Tris/HCl pH 7.6, NADH as donor, cytochrome c as terminal acceptor.

Where [9] appears, read: 60 mM Tris/HCl pH 7.6, FMN as acceptor.
Setting [10] is: 60 mM Tris/HCl pH 7.6, NADH as donor.
Where [11] appears, read: 60 mM Tris/HCl pH 7.6, 10 µM putidaredoxin plus 30 µM cytochrome c as acceptor.

In general, Km refers to the substrate concentration at which the rate is half of its maximum. As a reminder, the Kd is the free concentration of one partner at which half of the binding sites on the other are occupied at equilibrium, for simple one-to-one binding. High values mean lower affinity, low ones higher affinity. Usually kcat stands for the number of substrate molecules converted per active site and unit of time at saturation.

Regarding `NC(=O)C1=CN([C@@H]2O[C@H](COP(=O)(O)OP(=O)(O)OC[C@H]3O[C@@H](n4cnc5c(N)ncnc54)[C@H](O)[C@@H]3O)[C@@H](O)[C@H]2O)C=CC1` [NADH], the Km in data set [1] (setting [9]) was found to be 36 µM; in data set [2] (setting [9]), 23 µM.
Turning to `Cc1cc2nc3c(=O)[nH]c(=O)nc-3n(C[C@H](O)[C@H](O)[C@H](O)COP(=O)(O)OP(=O)(O)OC[C@H]3O[C@@H](n4cnc5c(N)ncnc54)[C@H](O)[C@@H]3O)c2cc1C` [FAD], the Michaelis constant (Km) in data set [2] (60 mM Tris/HCl pH 7.6, NADH as donor, kcat as printed although text calls FAD activity much lower) is 68.8 µM.
`Cc1cc2c(cc1C)N(C[C@H](O)[C@H](O)[C@H](O)COP(=O)(O)O)c1[nH]c(=O)[nH]c(=O)c1N2` [FNR]: the results for the equilibrium dissociation constant (Kd) in data set [3] and in data set [4] were 0.24 µM and 0.21 µM, respectively.
As to `Cc1cc2nc3c(=O)[nH]c(=O)nc-3n(C[C@H](O)[C@H](O)[C@H](O)COP(=O)(O)O)c2cc1C` [FMN], the equilibrium dissociation constant (Kd) amounted to 109 µM in data set [5] and 125 µM in data set [6]. In addition, the Km in data set [1] (setting [10]) is 8.6 µM; in data set [2] (setting [10]), 6.9 µM.
Take `NC(=O)C1=CN([C@@H]2O[C@H](COP(=O)(O)OP(=O)(O)OC[C@H]3O[C@@H](n4cnc5c(N)ncnc54)[C@H](OP(=O)(O)O)[C@@H]3O)[C@@H](O)[C@H]2O)C=CC1` [NADPH]: in data set [1] (setting [9]), the Km amounted to 92 µM.

B1: PdR (putidaredoxin reductase) (Pseudomonas putida) (protein)
chain: MNANDNVVIVGTGLAGVEVAFGLRASGWEGNIRLVGDATVIPHHLPPLSKAYLAGKATAESLYLRTPDAYAAQNIQLLGGTQVTAINRDRQQVILSDGRALDYDRLVLATGGRPRPLPVASGAVGKANNFRYLRTLEDAECIRRQLIADNRLVVIGGGYIGLEVAATAIKANMHVTLLDTAARVLERVTAPPVSAFYEHLHREAGVDIRTGTQVCGFEMSTDQQKVTAVLCEDGTRLPADLVIAGIGLIPNCELASAAGLQVDNGIVINEHMQTSDPLIMAVGDCARFHSQLYDRWVRIESVPNALEQARKIAAILCGKVPRDEAAPWFWSDQYEIGLKMVGLSEGYDRIIVRGSLAQPDFSVFYLQGDRVLAVDTVNRPVEFNQSKQIITDRLPVEPNLLGDESVPLKEIIAAAKAELSSA
notes: native purification from camphor-grown cells; FAD flavoprotein; CAM plasmid-coded
Regarding B1, in data set [7] (setting [11]), the Michaelis-Menten constant (Km) came to 5.9 µM and the turnover number (kcat) was found to be 102 s⁻¹.

B2: Fred (Pseudomonas putida) (protein)
chain: TKVAAEIVRSAIDPQWFRAVLGQYPTGVCAVTAMDPDGKMSGMAVGSFTSVSLNPPLVAFLPDRSSTSWPKIERAGKFCVNVLSDQQLGVCKRFASKDEDKFSGLVYRLSDNGSPIIEGVVAWIDCDLHSVQEAGDHYIVIGSVRELQVESEDSALLFYRGGYGGFAAI
notes: native purification from camphor-grown cells; chromosome-coded; 36 kDa homodimer
Take B2: in data set [8], the Michaelis constant (Km) was 4.2 µM and the kcat is 294 s⁻¹. In data set [7] (60 mM Tris/HCl pH 7.6, FMN as acceptor, cytochrome c as terminal acceptor), the Km came out at 28 µM.
